Numbered stars: 1 amine (or outer) side, 2 acyl side, 3 side chain; on linkers, the order of the positions; unused ones are H or OH. Bridge positions count the residues as written; N and C are the ends. Square brackets hold non-standard residues; d marks the D form. Peptide text beside a SMILES is read from it. * marks the point of attachment. C20 diacid = O=C(O)CCCCCCCCCCCCCCCCCCC(=O)*; γGlu = O=C(O)[C@H](CCC(=O)[*:2])N[*:1]; Hyp = O=C(O)[C@@H]1C[C@@H](O)CN1; NMeI = CC[C@H](C)[C@H](NC)C(=O)O; Orn = NCCC[C@H](N)C(=O)O; Dab = NCC[C@H](N)C(=O)O; Dap = NC[C@H](N)C(=O)O; Sar = CNCC(=O)O
Assays:
[1] = target: T1, recombinant human amylin 3 receptor (hAMYR3) (Homo sapiens, UniProt O60896+P30988); assay: hAMYR3 cAMP assay (AlphaScreen) in 1321N1 cells; type: cell-based; settings: cAMP formation, 45 min stimulation
T1 construct: host or cells: human astrocytoma cell line 1321N1
T1 sequence (P30988 25-474): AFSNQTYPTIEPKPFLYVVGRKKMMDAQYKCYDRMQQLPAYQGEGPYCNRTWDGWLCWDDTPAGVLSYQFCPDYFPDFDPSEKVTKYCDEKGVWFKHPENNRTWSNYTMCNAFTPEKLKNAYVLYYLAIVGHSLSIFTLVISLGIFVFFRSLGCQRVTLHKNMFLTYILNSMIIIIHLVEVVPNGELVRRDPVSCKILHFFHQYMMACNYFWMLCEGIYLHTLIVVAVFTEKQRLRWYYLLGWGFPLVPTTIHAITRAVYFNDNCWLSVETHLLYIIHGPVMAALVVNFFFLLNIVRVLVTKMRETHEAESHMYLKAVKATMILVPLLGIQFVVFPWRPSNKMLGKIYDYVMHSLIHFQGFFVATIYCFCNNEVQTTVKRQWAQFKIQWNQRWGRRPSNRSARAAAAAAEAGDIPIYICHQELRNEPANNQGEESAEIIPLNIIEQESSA
T1 sequence (O60896 24-148 partner): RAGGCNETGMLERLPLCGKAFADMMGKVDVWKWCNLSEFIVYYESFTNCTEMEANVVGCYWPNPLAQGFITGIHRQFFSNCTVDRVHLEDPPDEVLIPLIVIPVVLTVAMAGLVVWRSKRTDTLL
Excerpt: (§1) For the assessment of the in vitro activity of test peptides, cell lines expressing recombinant human calcitonin receptor (hCT-R) or recombinant human amylin 3 receptor (hAMYR3) in the background of the human astrocytoma cell line 1321N1 were purchased from DiscoveRx Corporation (Cat. No. 95-016106 and 95-0166C6). The hAMYR3 is a hetero-oligomer of the calcitonin receptor (Isoform 2; Gene ID 799) and RAMPS (Gene ID 10268) that forms when both genes are expressed in the same cell. The hCT-R cell line expresses only the recombinant human calcitonin receptor gene (Isoform 2; Gene ID 799). Upon activation of hCT-R or hAMYR3 by the test peptides the formation of cAMP is induced and was measured using the AlphaScreen® cAMP Assay kit from Perkin-Elmer (Cat. No. 6760635R).
(§2) Briefly, 1321N1 cells expressing hCT-R or hAMYR3 were seeded in 384-well microtiter plates (Falcon Optilux White, Cat.-No. 10448642) at 5,000 cells in […] growth medium per well (AssayComplete 1321N1 Cell Culture Kit, DiscoveRx Corp.), and incubated for 24 h at 37° C., 5% CO2. On the day of analysis growth medium was removed and the cells were stimulated by adding 10 μL of stimulation buffer (10 […], 0.1% BSA) containing increasing concentrations of test peptides, and incubation for 45 min at room temperature. The stimulation was stopped by adding 5.6 μL/well donor bead detection mix (5 mM Hepes pH7.4, 0.5% TWEEN 20, 0.1% BSA, 0.05 mg/mL donor beads, 62.5 nM biotinylated cAMP) and 4.5 μL/well acceptor bead solution (5 mM Hepes pH7.4, 0.5% TWEEN 20, 0.1% BSA, 0.05 mg/mL acceptor beads). After thorough mixing the plates were incubated in the dark for 1 h at room temperature and the cAMP content of the resulting cell lysates was estimated according to the AlphaScreen® cAMP Assay manufacturer's instructions. EC50 values were estimated by computer-aided curve fitting of results of at least 7 different compound concentrations.

[2] = target: T2, recombinant human calcitonin receptor (hCT-R) (Homo sapiens, UniProt P30988); assay: hCT-R cAMP assay (AlphaScreen) in 1321N1 cells; type: cell-based; settings: cAMP formation, 45 min stimulation
T2 construct: host or cells: human astrocytoma cell line 1321N1
T2 sequence (P30988 25-474): T1 sequence (P30988 25-474)
Excerpt: as §1, §2

[3] = Assessment of chemical stability in 40 mM buffers at 40° C. (RP-HPLC); type: physicochemical; settings: 1 mg/mL
Experimental: Samples of each test peptide were dissolved in acetate buffer pH 4 and phosphate buffer pH 6 and 7 (all buffer 40 mM). The final peptide concentration was 1 mg/mL. Samples were placed in glass vials and incubated at 40° C. The samples were analyzed by RP-HPLC on a C8 column with gradient elution using a trifluoroacetic acid/acetonitrile/water eluent system. The area-percentage (area-%) of the main peak was determined by UV spectroscopy at 220 nm at each sampling time point.
The % degradation was calculated by subtracting the […].
The results of the chemical stability assessment after 3 days of incubation time are summarized as % degradation in Table 1 (below).
The results of the chemical stability assessment after 14 days of incubation time are summarized as % degradation in Table 2 (below).

Compound	EC50 [1] [nM]	EC50 [2] [nM]	% degradation after 14 days at 40° C. pH4 acetate ([3]; acetate buffer pH 4, 14 days) [%]	% degradation after 14 days at 40° C. pH6 phosphate ([3]; phosphate buffer pH 6, 14 days) [%]	% degradation after 14 days at 40° C. pH7 phosphate ([3]; phosphate buffer pH 7, 14 days) [%]
CC[C@H](C)[C@@H](C(=O)N[C@@H](CC(C)C)C(=O)N[C@@H](CO)C(=O)N[C@@H](CO)C(=O)N[C@H](C(=O)N[C@@H](CCC(=O)O)C(=O)N[C@H](C(=O)NCC(=O)N[C@@H](CO)C(=O)N[C@@H](CC(N)=O)C(=O)N[C@H](C(=O)N1C[C@H](O)C[C@H]1C(N)=O)[C@@H](C)O)C(C)C)[C@@H](C)O)N(C)C(=O)[C@H](C)NC(=O)CN(C)C(=O)[C@H](Cc1ccccc1)NC(=O)[C@H](CO)NC(=O)[C@H](CO)NC(=O)[C@H](CCCNC(=N)N)NC(=O)[C@H](CCC(N)=O)NC(=O)[C@H](CC(C)C)NC(=O)[C@H](Cc1ccccc1)NC(=O)[C@H](Cc1c[nH]cn1)NC(=O)[C@H](C)NC(=O)[C@H](CC(C)C)NC(=O)[C@H](CCCNC(=N)N)NC(=O)[C@H](CCC(=O)O)NC(=O)[C@@H](NC(=O)[C@H](C)NC(=O)[C@@H]1CNC(=O)C[C@H](NC(=O)[C@H](CCCNC(=N)N)NC(=O)CC[C@H](NC(=O)CCCCCCCCCCCCCCCCCCC(=O)O)C(=O)O)C(=O)NCC(=O)N[C@@H]([C@@H](C)O)C(=O)N[C@@H](C)C(=O)N[C@@H]([C@@H](C)O)C(=O)N1)[C@@H](C)O [Compound 1, [19CD]-isoGlu-RD()GTAT-Dap()-ATERLAHFLQRSSF-Gly(Me)-A-Ile(Me)-LSSTEVGSNT-Hyp-NH2] ({C20 diacid-γGlu}-RDGTAT[Dap]ATERLAHFLQRSSF[Sar]A[NMeI]LSSTEVGSNT[Hyp]-NH2; lactam 2-7)	9.3	13.6			
CC[C@H](C)[C@@H](C(=O)N[C@@H](CC(C)C)C(=O)N[C@@H](CO)C(=O)N[C@@H](CO)C(=O)N[C@H](C(=O)N[C@@H](CCC(=O)O)C(=O)N[C@H](C(=O)NCC(=O)N[C@@H](CO)C(=O)N[C@@H](CC(N)=O)C(=O)N[C@H](C(=O)N1C[C@H](O)C[C@H]1C(N)=O)[C@@H](C)O)C(C)C)[C@@H](C)O)N(C)C(=O)[C@H](C)NC(=O)CN(C)C(=O)[C@H](Cc1ccccc1)NC(=O)[C@H](CO)NC(=O)[C@H](CO)NC(=O)[C@H](CCCNC(=N)N)NC(=O)[C@H](CCC(N)=O)NC(=O)[C@H](CC(C)C)NC(=O)[C@H](Cc1ccccc1)NC(=O)[C@H](Cc1c[nH]cn1)NC(=O)[C@H](C)NC(=O)[C@H](CC(C)C)NC(=O)[C@H](CCCNC(=N)N)NC(=O)[C@H](CCC(=O)O)NC(=O)[C@@H](NC(=O)[C@H](C)NC(=O)[C@@H]1CCNC(=O)C[C@H](NC(=O)[C@H](CCCNC(=N)N)NC(=O)CC[C@H](NC(=O)CCCCCCCCCCCCCCCCCCC(=O)O)C(=O)O)C(=O)NCC(=O)N[C@@H]([C@@H](C)O)C(=O)N[C@@H](C)C(=O)N[C@@H]([C@@H](C)O)C(=O)N1)[C@@H](C)O [Compound 2, [19CD]-isoGlu-RD()GTAT-Dab()-ATERLAHFLQRSSF-Gly(Me)-A-Ile(Me)-LSSTEVGSNT-Hyp-NH2] ({C20 diacid-γGlu}-RDGTAT[Dab]ATERLAHFLQRSSF[Sar]A[NMeI]LSSTEVGSNT[Hyp]-NH2; lactam 2-7)	0.032	0.105			
CC[C@H](C)[C@@H](C(=O)N1CCC[C@H]1C(=O)N[C@@H](CO)C(=O)N[C@@H](CO)C(=O)N[C@H](C(=O)N[C@@H](CCC(=O)O)C(=O)N[C@H](C(=O)NCC(=O)N[C@@H](CO)C(=O)N[C@@H](CC(N)=O)C(=O)N[C@H](C(=O)N1C[C@H](O)C[C@H]1C(N)=O)[C@@H](C)O)C(C)C)[C@@H](C)O)N(C)C(=O)[C@H](C)NC(=O)CN(C)C(=O)[C@H](Cc1ccccc1)NC(=O)[C@H](CO)NC(=O)[C@H](CO)NC(=O)[C@H](CCCNC(=N)N)NC(=O)[C@H](CCC(N)=O)NC(=O)[C@H](CC(C)C)NC(=O)[C@H](Cc1ccccc1)NC(=O)[C@H](Cc1c[nH]cn1)NC(=O)[C@H](C)NC(=O)[C@H](CC(C)C)NC(=O)[C@H](CCCNC(=N)N)NC(=O)[C@H](CCC(=O)O)NC(=O)[C@@H](NC(=O)[C@H](C)NC(=O)[C@@H]1CCCNC(=O)C[C@H](NC(=O)[C@H](CCCNC(=N)N)NC(=O)CC[C@H](NC(=O)CCCCCCCCCCCCCCCCCCC(=O)O)C(=O)O)C(=O)NCC(=O)N[C@@H]([C@@H](C)O)C(=O)N[C@@H](C)C(=O)N[C@@H]([C@@H](C)O)C(=O)N1)[C@@H](C)O [Compound 5, [19CD]-isoGlu-RD()GTAT-Orn()-ATERLAHFLQRSSF-Gly(Me)-A-Ile(Me)-PSSTEVGSNT-Hyp-NH2] ({C20 diacid-γGlu}-RDGTAT[Orn]ATERLAHFLQRSSF[Sar]A[NMeI]PSSTEVGSNT[Hyp]-NH2; lactam 2-7)	0.032	0.114			
CC[C@H](C)[C@@H](C(=O)N[C@@H](CC(C)C)C(=O)N[C@@H](CO)C(=O)N[C@@H](CO)C(=O)N[C@H](C(=O)N[C@@H](CCC(=O)O)C(=O)N[C@H](C(=O)NCC(=O)N[C@@H](CO)C(=O)N[C@@H](CC(N)=O)C(=O)N[C@H](C(=O)N1C[C@H](O)C[C@H]1C(N)=O)[C@@H](C)O)C(C)C)[C@@H](C)O)N(C)C(=O)[C@H](C)NC(=O)CN(C)C(=O)[C@H](Cc1ccccc1)NC(=O)[C@H](CCCNC(=N)N)NC(=O)[C@H](CCC(N)=O)NC(=O)[C@H](CC(C)C)NC(=O)[C@H](Cc1ccccc1)NC(=O)[C@H](Cc1c[nH]cn1)NC(=O)[C@H](C)NC(=O)[C@H](CC(C)C)NC(=O)[C@H](CCCNC(=N)N)NC(=O)[C@H](CCC(=O)O)NC(=O)[C@@H](NC(=O)[C@H](C)NC(=O)[C@@H]1CCCNC(=O)C[C@H](NC(=O)[C@H](CCCNC(=N)N)NC(=O)CC[C@H](NC(=O)CCCCCCCCCCCCCCCCCCC(=O)O)C(=O)O)C(=O)NCC(=O)N[C@@H]([C@@H](C)O)C(=O)N[C@@H](C)C(=O)N[C@@H]([C@@H](C)O)C(=O)N1)[C@@H](C)O [Compound 6, [19CD]-isoGlu-RD()GTAT-Orn()-ATERLAHFLQRF-Gly(Me)-A-Ile(Me)-LSSTEVGSNT-Hyp-NH2] ({C20 diacid-γGlu}-RDGTAT[Orn]ATERLAHFLQRF[Sar]A[NMeI]LSSTEVGSNT[Hyp]-NH2; lactam 2-7)	0.011	0.327			
N-α-[(S)-4-carboxy-4-(19-carboxynonadecanoylamino)butyryl]-[Arg1,Glu14,His17,Pro37]-pramlintide [NN96, reference compound]			3.0	10.1	33.2
